For data set [1], the system named is L1210/0 cells. Nature of the data set: Modified MTT cytotoxicity assay, murine leukemia L1210/0 (Example 2, Table 3). The conditions noted are these: L1210/0; MTT, continuous exposure 5 days. It counts as cell-based. Background: Tetrazolium assays rely on reduction of a dye to a coloured formazan, in cell work by metabolically active cells.
Procedure: (§4) Cytotoxicity was determined by a modified MTT assay. Briefly, the compounds were dissolved in normal saline and sterilized through 0.22 μm disc filters. […] Aliquots (20 μl ) of this, and serially diluted drug solutions, and of complete media (80 μl) were pipetted in triplicate into 96-well microtiler plates immediately before addition of cells. Cells in exponential phase of growth were trypsinized for 3 min, where necessary to dislodge adherent 2780 cells, collected and counted by Coulter counter (Coulter Electronics, Hialeah, Fla.). After diluting the L1210/0 (2,000/ml) and A2780 (5,000/ml) cells to appropriate concentrations, 100 μl aliquots of these cell suspensions were added to each of the wells. […] After a 3 hour incubation, the medium was removed and replaced by 50 μl of 100% DMSO to dissolve MTT formazan crystals. Plates were then agitated on a plate shaker for 5 min, and absorbances were measured at 570 nm with a multiwell scanning spectrophotometer (Dynatech MR600, Chantilly, Va.).
The subject of the next data set is A2780 cells. The experiment in a line: Modified MTT cytotoxicity assay, human ovarian A2780 (Example 2, Table 3). The conditions noted are these: continuous exposure (5 days in table footnote; 7 days in text). The format is cell-based.
Data set [2] has as its system L1210/0 cells. The experiment in a line: MTT cytotoxicity, L1210/0 (Example 5, Table 10). The format is cell-based, murine. To be noted: 72 hr (3 days) continuous exposure.
The subject of another data set is L1210/DACH cells. Nature of the data set: MTT cytotoxicity, tetraplatin-resistant L1210/DACH (Example 5, Table 10). It counts as cell-based, murine. The conditions noted are these: 72 hr (3 days) continuous exposure.
For another data set, the system named is L1210/DDP cells. Nature of the data set: MTT cytotoxicity, cisplatin-resistant L1210/DDP (Example 5, Table 10). The format is cell-based, murine. To be noted: 72 hr (3 days) continuous exposure.
The subject of data set [3] is Murine Leukemia L1210/DACH. Nature of the data set: In vivo antitumor activity against murine leukemia L1210/DACH (Example 3, Table 6). Set-up: species or system BDF1 mice. The conditions noted are these: L1210/DACH i.p., BDF1 mice, drug i.p. days 1, 5, 9; for % T/C (mean survival time of treated/mean survival time of control) × 100: at optimal dose/MTD; for long term survivors/no. tested: figures in parenthesis. How it is done: (§1) Each of the platinum complexes was evaluated in vivo against L1210/0, L1210/DDP, L1210/DACH and M5076 cells at several dose levels. […] The data at optimal doses are reproduced in Tables 4-7 along with data for the cyclobutanedicarboxylato, aquasulfato, methylmalonato and tartronato analogs (compounds 1-4 in Table 1).
BDF1 mice inoculated i.p. with 10^5 L1210 Leukemia cells on day 0 and
(§2) drug administered i.p. on days 1, 5, and 9. MTD = Maximum Tolerated Dose
(§3) (mg/kg/injection), % T/C = (mean survival time of treated/mean survival
time of control) × 100. Figures in parenthesis indicated long term

For a further data set, the system named is Murine Leukemia L1210/0. The experiment in a line: In vivo antitumor activity against murine leukemia L1210/0 (Example 3, Table 5). Details: species or system BDF1 mice. The conditions noted are these: L1210/0 i.p., BDF1 mice, drug i.p. days 1, 5, 9; for % T/C (mean survival time of treated/mean survival time of control) × 100: at optimal dose/MTD; for long term survivors/no. tested: figures in parenthesis. How it is done:
as §1
BDF1 mice inoculated i.p. with 10^5 L1210 Leukemiacells on day 0 and
as §2, §3
time of control) × 100. Figures in parenthesis indicate long term

The test system of another data set is M5076 Tumor Model. Nature of the data set: In vivo antitumor activity against M5076 tumor model (Example 3, Table 4). Details: species or system BDF1 mice; TGD (Tumor Growth Delay): unit not given beside the values. To be noted: M5076 s.c., BDF1 mice, i.p. days 7, 14, 21, 28; for TGD (Tumor Growth Delay): at optimal dose/MTD. Here is the method:
as §1
BDF1 mice inoculated s.c. with 10' M5076 cells on day 0 and drug
administered i.p on days 7, 14, 21, and 28. MTD = Maximum Tolerated Dose
(mg/kg/injection), TGD = Tumor Growth Delay

The nature of data set [4]: Renal and hematological toxicity, single i.p. dose (Table 8).

The text below walks through data of patent publication US5434256A, “Diamine platinum complexes as antitumor agents” (priority 1994, dated 1995).

The structures appear in SMILES notation.

Procedure for A2780 cells: as §4

For `NC1CCC(N)CC1.O=C1[O][Pt]([Cl])([Cl])[O]C1=O` [Compound 10, Cis-1,4-diaminocyclohexaneoxalatodichloroplatinum(IV)], the figures for the IC50 with L1210/0 cells [1] and with A2780 cells were 200 nM and 51 nM, respectively.

Consider `CCCCCC(=O)[O][Pt]1([Cl])([Cl])([O]C(=O)CCCCC)[NH]C2CCCCC2[NH]1` [Compound 19, (R,R-1,2-DACH)PtCl2 trans-(hexanoate)2], for which the IC50 in the data set on L1210/0 cells [2] was 40 nM; in the data set with L1210/DACH cells, 1500 nM; in the data set with L1210/DDP cells it was 230 nM.

In the case of `CCCC(=O)[O][Pt]([Cl])([Cl])[O]C(=O)CCC.N[C@@H]1CCCC[C@H]1N` [Compound 17, (R,R-1,2-diaminocyclohexane)PtCl2 trans(butyrate)2], the IC50 was 40 nM in the data set on L1210/0 cells [2], 170 nM with L1210/DACH cells and 220 nM in the data set with L1210/DDP cells.

As for `CC(C(=O)[O-])C(=O)[O-].N[C@H]1CC[C@@H](N)CC1.O.[Pt+2]` [Compound 3, Cis-1,4-Diaminocyclohexanemethylmalonatoplatinum(II). H2 O], the IC50 in the data set with L1210/0 cells [1] was 280 nM; in the data set on A2780 cells, 130 nM. Further, the “MTD (Maximum Tolerated Dose)” value in data set [3] stood at 100 mg/kg/injection; in the data set on Murine Leukemia L1210/0 it was 200 mg/kg/injection; with M5076 Tumor Model, 200 mg/kg/injection. In addition, the “% T/C (mean survival time of treated/mean survival time of control) × 100” value is on record as 180% in data set [3] and 382% in the data set on Murine Leukemia L1210/0. The “long term survivors/no. tested” value (in data set [3]; with Murine Leukemia L1210/0) was 1/5 throughout. In the data set with M5076 Tumor Model, the “TGD (Tumor Growth Delay)” value is 23.62.

`CCCC(=O)[O][Pt]([Cl])([Cl])[O]C(=O)CCC.NC1CCC(N)CC1` [Compound 22, (cis-1,4-DACH)PtCl2 trans-(butyrate)2]: the results for the IC50 in the data set on L1210/0 cells [2], in the data set with L1210/DACH cells and in the data set with L1210/DDP cells were 1.2 nM, 20 nM and 130 nM, respectively.

In the case of `NC1CCC(N)CC1.O=C1[O][Pt][O]C1=O` (stereo not drawn) [Compound 5, Cis-1,4-diaminocyclohexaneoxalatoplatinum(II)], the results for the IC50 with L1210/0 cells [1] and in the data set on A2780 cells were 240 nM and 60 nM, respectively.

As to `NC1CCC(N)CC1.O.O=S(=O)([O-])[O][Pt+]` (stereo not drawn) [Compound 2, Cis-1,4-Diaminocyclohexaneaquasulfatoplatinum(II)], the 50% inhibitory concentration (IC50) came to 80 nM in the data set on L1210/0 cells [1] and 50 nM in the data set with A2780 cells. Further, the “MTD (Maximum Tolerated Dose)” value in data set [3] is reported as 1.56 mg/kg/injection; with Murine Leukemia L1210/0, 1.56 mg/kg/injection; in the data set with M5076 Tumor Model, 3.1 mg/kg/injection. Further, the “% T/C (mean survival time of treated/mean survival time of control) × 100” value is reported as 140% in data set [3] and greater than 571% in the data set with Murine Leukemia L1210/0. Moreover, the “long term survivors/no. tested” value is listed as 1/5 in data set [3] and 3/5 with Murine Leukemia L1210/0. Further, the “TGD (Tumor Growth Delay)” value in the data set on M5076 Tumor Model amounted to 12.1.

Take `N.N.O=C([O-])C1(C(=O)[O-])CCC1.[Pt+2]` [Carboplatin]: the “BUN d.5” value in [4] (blood urea nitrogen, single i.p. dose (mg/kg): 1,4-DACH-Pt^II CBDCA 300, 1,4-DACH-Pt^IV Cl4 8.0, Tetraplatin 8.0, Cis-platin 12.0, Carboplatin 150, saline control 20.9) was 15.8 mg %. Besides, the “Survivors on d.14” value in data set [4] (single i.p. dose (mg/kg): 1,4-DACH-Pt^II CBDCA 300, 1,4-DACH-Pt^IV Cl4 8.0, Tetraplatin 8.0, Cis-platin 12.0, Carboplatin 150) is reported as 0/5. Also, in data set [4] (single i.p. dose (mg/kg): 1,4-DACH-Pt^II CBDCA 300, 1,4-DACH-Pt^IV Cl4 8.0, Tetraplatin 8.0, Cis-platin 12.0, Carboplatin 150, mean, S.D. less than 20%), the “Body Wt. on d.5” value was 79 % on control. In data set [4] (single i.p. dose, leucopenia), the “myelotoxicity / myelosuppression (in words)” value is on record as “myelosuppressive”.

For the compound `N[C@H]1CC[C@@H](N)CC1.O=C([O-])CC(=O)[O-].[Pt+2]` [Compound 6, Cis-1,4-diaminocyclohexanemalonatoplatinum(II)], the half-inhibitory concentration (IC50) in the data set on L1210/0 cells [1] is 340 nM; in the data set on A2780 cells, 80 nM.

Turning to `CC(=O)[O][Pt]([Cl])([Cl])[O]C(C)=O.NC1CCC(N)CC1` [Compound 11, Cis-1,4-diamtinocyclohexanedichlorodiacetatoplatinum (IV)], it took 45 nM to reach half-maximal inhibition in the data set with A2780 cells (IC50).

`NC1CCC(N)CC1.[OH][Pt]([OH])([Cl])[Cl]` (stereo not drawn) [Compound 8, Cis-1,4-diaminocyclohexanedichlorodihydroxoplatinum(IV)]: the IC50 stood at 880 nM with L1210/0 cells [1] and 140 nM in the data set on A2780 cells.

For `NC1CCC(N)CC1.O=C1[O][Pt]([Cl])([Cl])[O]C(=O)C12CCC2` [Compound 9, Cis-1,4-diaminocyclohexane-1,1-cyclobutanedicarboxylato-dichloroplatinum(IV)], the figures for the IC50 with L1210/0 cells [1] and in the data set with A2780 cells were 140 nM and 50 nM, respectively.

The IC50 is the concentration needed to halve the response being measured.
